Laboratory results reported in publication PMC4712933, “Development of Follicle-Stimulating Hormone Receptor Binding Probes to Image Ovarian Xenografts” (Journal of biotechnology & biomaterials, 2015).
Where a SMILES comes first, the peptide text is derived from it. The star is where a group is joined. 5FAM = O=C1OC2(c3ccc(O)cc3Oc3cc(O)ccc32)c2ccc(C(=O)*)cc21

What was measured:
[1] = biological target: T1, FSHR on OVCAR-3 cells (Homo sapiens, UniProt P23945); test: Flow cytometry binding of BI-10^FAM to OVCAR-3 cells
T1 construct: endogenous in cells; host or cells: OVCAR-3 cells
T1 sequence (P23945 18-695): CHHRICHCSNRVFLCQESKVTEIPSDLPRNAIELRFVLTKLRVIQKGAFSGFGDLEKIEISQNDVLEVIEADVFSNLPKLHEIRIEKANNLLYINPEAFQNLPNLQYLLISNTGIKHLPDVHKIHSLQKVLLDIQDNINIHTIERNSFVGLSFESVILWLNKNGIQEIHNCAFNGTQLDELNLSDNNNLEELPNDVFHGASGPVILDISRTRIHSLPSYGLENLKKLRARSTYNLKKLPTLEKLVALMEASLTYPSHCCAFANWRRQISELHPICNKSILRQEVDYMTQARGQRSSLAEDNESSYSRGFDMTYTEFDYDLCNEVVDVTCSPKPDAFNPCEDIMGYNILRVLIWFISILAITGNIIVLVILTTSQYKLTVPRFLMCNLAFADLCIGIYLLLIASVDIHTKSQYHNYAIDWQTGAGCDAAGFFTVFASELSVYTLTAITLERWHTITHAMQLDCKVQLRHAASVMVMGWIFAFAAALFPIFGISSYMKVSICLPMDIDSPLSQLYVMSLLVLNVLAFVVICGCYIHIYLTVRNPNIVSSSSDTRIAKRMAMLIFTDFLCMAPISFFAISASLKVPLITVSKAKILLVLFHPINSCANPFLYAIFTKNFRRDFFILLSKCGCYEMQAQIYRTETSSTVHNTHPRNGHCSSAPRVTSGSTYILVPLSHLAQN
Method: OVCAR-3 cells (generously provided by Dr. Mellisa Fishell of Indiana University School of Medicine) were chosen for in vitro binding experiment due to its high level of FSHR expression. For the first 2–3 passages, the cells were plated in […] flasks using RPMI medium (supplemented with 5 μM Insulin (Sigma), 20% FBS (Hyclone), Sodium private (GIBCO), and Pen Strep (GIBCO)), and placed in an incubator (5% CO2 at a temperature of 37°C incubator) to maintain viability. For peptide binding experiments, cells were plated in six-well plates with the medium and environment conditions as previously described. Medium was changed every 2–3 days until cells reached more than 90% confluency. […] These samples were ready for imaging within the flow cytometer. […]
Each sample of OVCAR-3 cells was placed within the flow cytometer (Beckman Coulter FC500) and the FITC fluorescent intensity from the BI-10^FAM peptide bound to the OVCAR-3 cells were acquired. A TOPO-3 dye (Sigma) in 1 nM concentration was used to acquire the fluorescence from only viable cells in a two-color flow cytometry assay. Ten thousand cells were counted and the fluorescence measured in each sample. […] The EC50 value (binding affinity) and receptor saturation intensity were calculated using a nonlinear regression analysis using GraphPad Prism fitting algorithm (GraphPad Software, Inc.). […]

[2] = test system: FSHR; settings: low doses; cited from earlier work
Description: Their small effective hydrodynamic diameter, high washout rates, and rapid renal filtration are highly valued for in vivo imaging, where an optimal tumor-to-reference tissue ratio (TRR) can be quickly reached. This was de ...

[3] = test system: FSHR-rich Sertoli cells; settings: FSHR-rich Sertoli cells from Bovine Calf testes; ref 29 (Lee et al); read-out: EC50, radio-ligand binding assay; cited from earlier work
[4] = test system: FSHR; settings: cited from earlier work
Description: FSHR belongs to G protein-coupled receptor and consists of a transmembrane and an extracellular domain, where the former is characterized by a seven helical repeats and the latter by multiple leucine-rich repeats. FSHR is expressed on normal ovarian epithelium, e.g., the fallopian tubal epithelium, and shares about 70% transmembrane domain sequence with other G protein-coupled receptors, such as L ...

binding to FSHR, in words ([1]; BI-10 binding curves) | Compound | EC50 ([1]; OVCAR-3 cells, BI-10^FAM, 30 min incubation, 37°C incubator, 1.0-500 μM, wash with PBS, 5 mM EDTA detachment, median FITC fluorescence, flow cytometry, TOPO-3 viable gate, 10,000 cells, nonlinear regression, R^2=0.93, average of three measurements (Figure 1: n=5), read-out: EC50 (binding affinity, dose response curve)) [µM] | physiologic effects [2] | EC50 [3] [µM] | binding to FSHR, in words ([4]; functional radio ligand receptor assay, synthetic BI-10) | inhibition of FSH-stimulated estradiol and cAMP synthesis, in words ([4]; synthetic BI-10 peptide, high concentrations)
– | CC(C)C[C@H](NC(=O)[C@H](CC(N)=O)NC(=O)[C@H](CCC(=O)O)NC(=O)[C@@H](NC(=O)c1ccc2c(c1)C(=O)OC21c2ccc(O)cc2Oc2cc(O)ccc21)[C@@H](C)O)C(=O)N[C@@H](CCC(=O)O)C(=O)N1CCC[C@H]1C(=O)N[C@@H](CC(N)=O)C(=O)NCC(=O)N[C@@H](CCC(=O)O)C(=O)NCC(N)=O [BI-10^FAM] (5FAM-TENLEPNGEG-NH2) | 160 | negligible physiologic effects when used in low doses | – | – | –
highly specific but low in affinity | TENLEPNGEGNH2 [BI-10] | – | – | ~300 | specifically binds to FSHR | inhibits FSH-stimulated estradiol and secondary messenger cAMP synthesis at high concentrations
